Like-named read-outs stand apart in the source and are kept apart here.
Key:
[1] = PO Dosing in Rats: urinary excretion profile; assay type: in vivo, Male Sprague-Dawley Rats; conditions: analyte = dosed compound itself in urine, PO 3 mg/kg, male rats
Method: (§1) Compounds prepared as described in examples 1, 3, 7, 8, and 9 are administered PO to Male Sprague-Dawley Rats (250 grams; 3 animals per test group). The test compounds are dissolved in aqueous sodium hydroxide solution (0.2N), brought up to volume with phosphate buffered saline to a concentration of 0.6 mg/mL, and PO administered to the animals at a concentration of 3 mg/kg (5 mL/kg). Plasma samples are removed at 0.25, 0.5, 1, 3, 6, 12 and 24 hr after initial dose and analyzed for presence of compound and possible metabolite. Urine samples are also collected and analyzed for parent compound and/or metabolite.
(§2) Note that in some instances, 2-(5-Bromo-1-(4-cyanonaphthalen-1-yl)-1H-imidazol-2-ylthio)acetic acid (eg 1) is a possible in vivo metabolite of the compounds described in examples 2-9.

hURAT1 Transporter = biological target: T1, hURAT1 Transporter (Homo sapiens, UniProt Q96S37); experiment: Uric Acid Uptake Assay (14C-uric acid uptake in HEK293/urat1 cells); assay type: cell-based; conditions: 40 μM C14 uric acid, 10 minutes at room temperature
T1 construct: Full-length human URAT1 gene (SLC22A12) was subcloned from plasmid pCMV6-XL5 (Origene)
T1 sequence (Q96S37 1-553): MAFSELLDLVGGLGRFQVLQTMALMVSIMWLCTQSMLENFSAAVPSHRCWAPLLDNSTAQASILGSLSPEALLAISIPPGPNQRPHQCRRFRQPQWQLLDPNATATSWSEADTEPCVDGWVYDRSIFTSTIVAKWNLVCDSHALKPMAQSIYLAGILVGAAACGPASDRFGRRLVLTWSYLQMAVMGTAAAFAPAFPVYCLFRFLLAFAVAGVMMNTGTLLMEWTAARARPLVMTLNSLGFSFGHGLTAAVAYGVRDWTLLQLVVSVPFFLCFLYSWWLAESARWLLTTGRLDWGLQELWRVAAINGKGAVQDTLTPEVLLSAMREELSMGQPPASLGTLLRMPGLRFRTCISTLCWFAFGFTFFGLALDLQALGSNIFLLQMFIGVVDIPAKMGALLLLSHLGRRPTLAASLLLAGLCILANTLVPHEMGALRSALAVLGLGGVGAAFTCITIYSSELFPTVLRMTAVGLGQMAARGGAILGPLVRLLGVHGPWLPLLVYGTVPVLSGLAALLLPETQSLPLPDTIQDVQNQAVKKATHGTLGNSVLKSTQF
From the text: Creation of Stable Cell Lines Expressing hURAT1 Transporter: Full-length human URAT1 gene (SLC22A12) was subcloned from plasmid pCMV6-XL5 (Origene) into eukaryotic expression plasmid pCMV6/Neo (Origene) using Not I restriction sites. Gene sequencing confirmed the sequence of hURAT1 as outlined in Genbank (Accession #NM_144585.2). HEK293 human embryonic kidney cells (ATCC #CRL-1573) were propagated in EMEM tissue culture medium as described by ATCC in an atmosphere of 5% CO2 and 95% air. Transfections of HEK293 cells with the pCMV6/Neo/URAT1 construct were performed using L2000 transfection reagent (Invitrogen) as described by the manufacturer. After 24 h the transfected cells were split into 10 cm tissue culture plates and grown for 1 day after which the medium was replaced with fresh growth medium containing G418 (Gibco) at 0.5 mg/ml final concentration. Drug-resistant colonies were selected after approximately 8 days and then tested for ^14C-uric acid transport activity. The HEK293/urat1 cells are plated on Poly-D-Lysine Coated 96-well Plates at a density of 75,000 cells per well.
Cells were grown overnight (20-26 hours) at 37° C. in an incubator. Plates were allowed to come to room temperature and media was washed out with one wash of 250 μl of Wash Buffer (125 mM Na Gluconate, 10 mM Hepes ph 7.3). Compound or vehicle is added in assay buffer with C14 Uric Acid for a final concentration of 40 μM Uric Acid with a specific activity of 54 mCi/mmol. Assay Buffer is 125 mM Sodium Gluconate, 4.8 mM Potassium Gluconate, 1.2 mM Potassium phosphate, monobasic, 1.2 mM magnesium sulfate, 1.3 mM Ca Gluconate, 5.6 mM Glucose, 25 mM HEPES, pH 7.3. Plates were incubated at room temperature for 10 minutes then washed 3 times with 50 μl Wash Buffer and 3 times with 250 μl Wash Buffer. Microscint 20 Scintillation Fluid was added and plates were incubated overnight at 45° C. to equilibrate. Plates are then read on the TopCount Plate Reader and an EC50 value generated. (See Enomoto et al, Nature, 2002, 417, 447-451 and Anzai et al, J. Biol. Chem., 2004, 279, 45942-45950).
Compounds prepared as described herein, were examined according to the procedure described above and EC50 values generated. […] (N/A means data not available).

[2] = background statement, in certain instances; cited from earlier work
[3] = PO Dosing in Rats: plasma profile; assay type: in vivo, Male Sprague-Dawley Rats; conditions: for Cmax / Tmax / half-life / AUC(0-t): Sprague-Dawley, rat; for Cmax / Tmax / half-life / Clast: analyte = dosed compound itself in plasma; for half-life: read-out: t½ (converted); for AUC t = 0_6, share in brackets / AUC t = 12_24, share in brackets / AUC t = _12, share in brackets: share of AUC 0_24; for AUC(0-t): male, plasma, po, 3 mg/kg
Method: as §1, §2

[4] = analyte = dosed compound itself
[5] = analyte = dosed compound itself, PO 3 mg/kg, male rats, read-out: AUC t = 0_6
[6] = analyte = dosed compound itself, PO 3 mg/kg, male rats, read-out: AUC t = 0_24
[7] = analyte = dosed compound itself, PO 3 mg/kg, male rats, read-out: AUC t = 12_24
[8] = analyte = dosed compound itself, PO 3 mg/kg, male rats, read-out: AUC t = _12
[9] = footnote *: plasma, not urinary, distribution, analyte = dosed compound, PO 3 mg/kg, male rats

N#Cc1ccc(-n2c(Br)cnc2SCC(=O)NCCC(=O)O)c2ccccc12 [Example 7, 3-(2-(5-bromo-1-(4-cyanonaphthalen-1-yl)-1H-imidazol-2-ylthio)acetamido)propanoic acid]
Total Urinary Excretion % of dose [1]: 26 % of dose | Urinary Distribution (%) 0-6 h [1]: 63% | Urinary Distribution (%) 6-12 h [1]: 30% | Urinary Distribution (%) 12-24 h [1]: 7% | EC50 (hURAT1 Transporter): 1000 to 30000 nM

CCCN(CCC)S(=O)(=O)c1ccc(C(=O)O)cc1 [probenecid]
individuals treated who fail to achieve reduction of serum uric acid levels<6 mg/dL [2]: 25-50% | individuals who develop intolerance [2]: one-third

CCOC(=O)[C@H](C)NC(=O)CSc1ncc(Br)n1-c1ccc(C#N)c2ccccc12 [Example 5, (2S)-Ethyl 2-(2-(5-bromo-1-(4-cyanonaphthalen-1-yl)-1H-imidazol-2-ylthio)acetamido)propanoate]
EC50 (hURAT1 Transporter): 1 to 1000 nM

N#Cc1ccc(-n2c(Br)cnc2SC(F)(F)C(=O)O)c2ccccc12 [Example 10, 2-(5-Bromo-1-(4-cyanonaphthalen-1-yl)-1H-imidazol-2-ylthio)-2,2-difluoroacetic acid]
EC50 (hURAT1 Transporter): 1 to 1000 nM

Cc1cnc(SCC(=O)O)n1-c1ccc(N(C)C)c2c1CCCC2
EC50 (hURAT1 Transporter): 1000 to 30000 nM

CC(C)[C@H](NC(=O)CSc1ncc(Br)n1-c1ccc(C#N)c2ccccc12)C(=O)O [Example 9, (2S)-2-(2-(5-bromo-1-(4-cyanonaphthalen-1-yl)-1H-imidazol-2-ylthio)acetamido)-3-methylbutanoic acid]
Total Urinary Excretion % of dose [1]: 1 % of dose | Urinary Distribution (%) 0-6 h [1]: 66% | Urinary Distribution (%) 6-12 h [1]: 26% | Urinary Distribution (%) 12-24 h [1]: 9% | EC50 (hURAT1 Transporter): 1000 to 30000 nM | Cmax ([3]; PO 3 mg/kg, male rats): 25.8 ng/mL | Tmax ([3]; PO 3 mg/kg, male rats): 2.67 h | half-life ([3]; PO 3 mg/kg, male rats): 161 min | Clast ([3]; PO 3 mg/kg, male rats): 4690 pg/mL | AUC t = 0_6, share in brackets [3, 4]: (49%) | AUC t = 12_24, share in brackets [3, 4]: (15%) | AUC t = _12, share in brackets [3, 4]: (36%) | AUC(0-t) [3, 5]: 91.5 ng·h/mL | AUC(0-t) [3, 6]: 187 ng·h/mL | AUC(0-t) [3, 7]: 28.2 ng·h/mL | AUC(0-t) [3, 8]: 67.7 ng·h/mL

CCOC(=O)[C@@H](NC(=O)CSc1ncc(Br)n1-c1ccc(C#N)c2ccccc12)C(C)C [Example 6, (2S)-Ethyl 2-(2-(5-bromo-1-(4-cyanonaphthalen-1-yl)-1H-imidazol-2-ylthio)acetamido)-3-methylbutanoate]
EC50 (hURAT1 Transporter): 1 to 1000 nM

CCOC(=O)CCNC(=O)CSc1ncc(Br)n1-c1ccc(C#N)c2ccccc12 [Example 4, Ethyl 3-(2-(5-bromo-1-(4-cyanonaphthalen-1-yl)-1H-imidazol-2-ylthio)acetamido)propanoate]
EC50 (hURAT1 Transporter): 1 to 1000 nM

C[C@H](NC(=O)CSc1ncc(Br)n1-c1ccc(C#N)c2ccccc12)C(=O)O [Example 8, (2S)-2-(2-(5-bromo-1-(4-cyanonaphthalen-1-yl)-1H-imidazol-2-ylthio)acetamido)propanoic acid]
Total Urinary Excretion % of dose [1]: 8 % of dose | Urinary Distribution (%) 0-6 h [1]: 63% | Urinary Distribution (%) 6-12 h [1]: 32% | Urinary Distribution (%) 12-24 h [1]: 5% | EC50 (hURAT1 Transporter): > 30000 nM | Cmax ([3]; PO 3 mg/kg, male rats): 110 ng/mL | Tmax ([3]; PO 3 mg/kg, male rats): 1 h | half-life ([3]; PO 3 mg/kg, male rats): 179 min | Clast ([3]; PO 3 mg/kg, male rats): 371 pg/mL | AUC t = 0_6, share in brackets [3, 4]: (69%) | AUC t = 12_24, share in brackets [3, 4]: (13%) | AUC t = _12, share in brackets [3, 4]: (17%) | AUC(0-t) [3, 5]: 339 ng·h/mL | AUC(0-t) [3, 6]: 488 ng·h/mL | AUC(0-t) [3, 7]: 65.2 ng·h/mL | AUC(0-t) [3, 8]: 83.9 ng·h/mL

N#Cc1ccc(-n2c(Br)cnc2SCC(=O)O)c2ccccc12 [Example 1, 2-(5-Bromo-1-(4-cyanonaphthalen-1-yl)-1H-imidazol-2-ylthio)acetic acid]
Total Urinary Excretion % of dose [1]: 4.2 % of dose | EC50 (hURAT1 Transporter): 1 to 1000 nM | BA ([3]; analyte = dosed compound itself, PO 3 mg/kg, male rats): 30% | Plasma Distribution (%) 0-6 h [3, 9]: 85* % | Plasma Distribution (%) 6-12 h [3, 9]: 11* % | Plasma Distribution (%) 12-24 h [3, 9]: 4* %

Oc1ncnc2[nH]ncc12 [Allopurinol, allopurinol]
incidence of side effects, of all individuals treated with the drug [2]: 20%

N#Cc1ccc(-n2c(Br)cnc2SCC(=O)NCC(=O)O)c2ccccc12 [Example 3, 2-(2-(5-Bromo-1-(4-cyanonaphthalen-1-yl)-1H-imidazol-2-ylthio)acetamido)acetic acid]
Total Urinary Excretion % of dose [1]: 7 % of dose | Urinary Distribution (%) 0-6 h [1]: 74% | Urinary Distribution (%) 6-12 h [1]: 20% | Urinary Distribution (%) 12-24 h [1]: 7% | EC50 (hURAT1 Transporter): 1000 to 30000 nM | Cmax ([3]; PO 3 mg/kg, male rats): 56.6 ng/mL | Tmax ([3]; PO 3 mg/kg, male rats): 0.833 h | half-life ([3]; PO 3 mg/kg, male rats): 209 min | Clast ([3]; PO 3 mg/kg, male rats): 518 pg/mL | AUC t = 0_6, share in brackets [3, 4]: (58%) | AUC t = 12_24, share in brackets [3, 4]: (10%) | AUC t = _12, share in brackets [3, 4]: (32%) | AUC(0-t) [3, 5]: 145 ng·h/mL | AUC(0-t) [3, 6]: 251 ng·h/mL | AUC(0-t) [3, 7]: 25.6 ng·h/mL | AUC(0-t) [3, 8]: 79.8 ng·h/mL

CCOC(=O)CNC(=O)CSc1ncc(Br)n1-c1ccc(C#N)c2ccccc12 [Example 2, Ethyl 2-(2-(5-bromo-1-(4-cyanonaphthalen-1-yl)-1H-imidazol-2-ylthio)acetamido)acetate]
EC50 (hURAT1 Transporter): 1 to 1000 nM

Source: patent US8193234B2, “Compounds, compositions and methods of using same for modulating uric acid levels” (Ardea Biosciences, Inc., priority 2008, dated 2012)
